Results on four molecules are retold here after ChEMBL document CHEMBL1201862, “PubChem BioAssay data set” (2004).

Molecules are shown by their SMILES.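 Cells were grown in 96-well plates and exposed to each compound for 48 hours at five concentrations; endpoints were interpolated linearly between bracketing concentrations, or set to the highest concentration if not reached. At the GI50, growth is halved.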 The source made the active and inactive calls. No stated cut-off is given here; in the data, active = GI50 up to about 1.1 µM and inactive = higher.

Some test systems named below: SF-295; OVCAR-3; SW-620; HT-29; CAKI-1; UACC-62; IGROV-1; MOLT-4; SK-MEL-2; SK-OV-3; HCT-116; UO-31; OVCAR-4; RPMI-8226; SF-539; UACC-257; M19-MEL; NCI-H23.
Holding throughout (test): NCI anticancer screen, dose series, 48 h

As for `C[C@@H]1[C@@H]2[C@@H](C=C3C4CCC5Cc6nc7c(nc6C[C@@]5(C)C4C[C@H](O)[C@]32CO)CC2CCC3C4=C[C@H]5O[C@@]6(OC(C)(CO)C[C@@H]6O)[C@H](C)[C@@]5(O)[C@]4(C)[C@@H](O)CC3[C@]2(C)C7)O[C@]12CCC(C)(C)O2` (some centres not stated), the GI50 is 0.000508 µM (active) with SF-295; 0.388 µM (active) in the test with OVCAR-3; 0.0225 µM (active) in the test on SW-620; 0.0625 µM (active) in the test with HT-29; 0.021 µM (active) in the test on CAKI-1; 0.0802 µM (active) with UACC-62. In addition, the GI50 with IGROV-1 is 0.387 µM (active); in the test with MOLT-4, 0.00505 µM (active); in the test with SK-MEL-2 it was 0.0189 µM (active); in the test on SK-OV-3, 0.0167 µM (active); with HCT-116 it was 0.0306 µM (active); with UO-31 it was 0.0575 µM (active). Besides, the GI50 was 0.959 µM (active) in the test on OVCAR-4; 0.00144 µM (active) in the test on RPMI-8226; 0.000764 µM (active) in the test with SF-539; 0.0668 µM (active) in the test with UACC-257; 0.966 µM (active) with M19-MEL; 0.0328 µM (active) in the test on NCI-H23.
For `N#CCCn1c(S)nnc1CCC(=O)Nc1ccc(Cl)cc1Cl`, the GI50 with SF-295, with OVCAR-3, in the test on SW-620, with HT-29, in the test with CAKI-1 and with UACC-62 was > 100 µM (inactive) throughout. The GI50 with IGROV-1, with MOLT-4, in the test with SK-MEL-2, in the test with SK-OV-3, with HCT-116 and in the test on UO-31 was > 100 µM (inactive) throughout. Also, the GI50 in the test with OVCAR-4, in the test with RPMI-8226, with SF-539, in the test with UACC-257, with M19-MEL and in the test on NCI-H23 was > 100 µM (inactive) in each case.
As to `CNC(=O)OCc1nc(SC2CCCCO2)n(C)c1COC(=O)NC` (configuration not stated), the GI50 in the test with SF-295, in the test on OVCAR-3, in the test on SW-620, with HT-29, in the test with CAKI-1 and in the test with UACC-62 was > 100 µM (inactive) throughout. Moreover, the GI50 with IGROV-1, with MOLT-4, with SK-MEL-2, in the test on SK-OV-3, in the test on HCT-116 and in the test with UO-31 was > 100 µM (inactive) each time. Also, the GI50 in the test with OVCAR-4, in the test with RPMI-8226, with SF-539, with UACC-257, in the test with M19-MEL and in the test on NCI-H23 was > 100 µM (inactive) throughout.
For the molecule `OCCCNc1ccnc2cc(Cl)ccc12`, the GI50 with SF-295, with OVCAR-3, with SW-620, in the test on HT-29, in the test on CAKI-1 and in the test with UACC-62 was > 100 µM (inactive) throughout. Also, the GI50 with IGROV-1 is > 100 µM (inactive); in the test with MOLT-4, > 100 µM (inactive); in the test on SK-MEL-2, > 100 µM (inactive); in the test with SK-OV-3 it was > 100 µM (inactive); with HCT-116 it was 57.9 µM (inactive); with UO-31, 25.5 µM (inactive). The GI50 with OVCAR-4, in the test on RPMI-8226, with SF-539, in the test with UACC-257, with M19-MEL and in the test on NCI-H23 was > 100 µM (inactive) each time.
